# Assay results from patent publication US20250041294A1, “Synergistic compositions for use in the treatment of cancer” (Sartar Therapeutics Oy, priority 2021, published 2025).
# Tests used:
# Type in all cases: cell-based
# [1] = tested on: GOT3 and SA4 cell lines; experiment: High throughput drug sensitivity and resistance test, average over cell lines (anagrelide combination); conditions: anagrelide combination, average of SA4 and GOT3; aDSS higher than 3.0 = synergy
# Protocol: (§1) Cell lines. PDE3A-positive (GIST882, SA4, and GOT3) and PDE3A-negative cell lines (93TT449, 94T778, LPS141, MLS17656-92, MLS402-91, and SW872) were cultured in RPMI Medium 1640 (Gibco) with 5-, 10- or 20% fetal bovine serum (FBS, gibco), 100 U/mL of penicillin, 100 […] and 0.03 mg/mL of L-glutamine (Pen Strep Glut, Gibco, 10378-016) in a humidified, 5% CO2 atmosphere at 37° C.
# (§2) High throughput drug sensitivity and resistance test. A sensitivity and resistance of cancer cell lines to 528 compounds were investigated in 9 cell lines (GIST882, SA4, GOT3, 93TT449, 94T778, LPS141, MLS17656-92, MLS402-91, and SW872). In addition, same compounds were investigated together with anagrelide hydrochloride (100 nM) treatment in the PDE3A low expressing cell lines SA4 and GOT3, and with BAY2666605 (40 nM) in all PDE3A-positive cell lines GIST882, SA4 and GOT3. The compounds were dissolved in 100% dimethyl sulfoxide or water and plated in 10-fold dilutions covering a 10,000-fold concentration range on flat clear bottom 384-well microplates as described in detail earlier (Pulkka O P, et al 2019). A cell viability was measured after 72 hours using CellTiter-Glo Cell Viability assay (Promega Inc.) and PHERAstar FS plate reader (BMG Labtech). The data were normalized to negative (0.01% dimethyl sulfoxide only) and positive (100 μmol/L benzethonium chloride) controls.
# (§3) A four-parameter logistic dose-response curves were estimated by using the Marquardt-Levenberg algorithm and Breeze analysis platform. Drug responses to the test compounds were measured using the drug sensitivity score (DSS). Drug synergy partners, which were common in investigated cell lines were identified as following: DSS value of a single agent was subtracted from the DSS value of anagrelide-drug combination in single cell lines. […] The analysis was repeated by using BAY2666605 as a PDE3A modulator.
# [2] = tested on: GOT3 cell line; experiment: High throughput drug sensitivity and resistance test (CellTiter-Glo, 72 hours); conditions: GOT3; for GOT3 cell line: DSS(combo (anagrelide))-DSS(drug): drug combined with anagrelide hydrochloride (100 nM) minus drug alone; for GOT3 cell line: DSS(combo (BAY2666605))-DSS(drug): drug combined with BAY2666605 (40 nM) minus drug alone
# Protocol: as §1, §2, §3
# [3] = tested on: SA4 cell line; experiment: as above; conditions: SA4; for SA4 cell line: DSS(combo (anagrelide))-DSS(drug): drug combined with anagrelide hydrochloride (100 nM) minus drug alone; for SA4 cell line: DSS(combo (BAY2666605))-DSS(drug): drug combined with BAY2666605 (40 nM) minus drug alone
# Protocol: as §1, §2, §3
# [4] = tested on: GIST882 cell line; experiment: Drug combination testing with concentration matrices, SynergyFinder 2.0; conditions: combination with anagrelide, seven-concentration matrices
# Protocol: (§4) Drug combination testing with anagrelide and 12 selected drugs was performed as described above but with selected drugs using drug concentration matrices covering seven different concentrations with 3 replicate sample of each combinations and in two replicate assays. […] The tool implements synergy scoring with four major reference models: HSA, Loewe, Bliss and ZIP models. The degree of a drug combination effect can be readily visualized as a synergy landscape map over the dose matrix and ZIP synergy score.
# [5] = tested on: GOT3 cell line; experiment: as above; conditions: combination with anagrelide, seven-concentration matrices
# Protocol: as §4
# [6] = tested on: SA4 cell line; experiment: as above; conditions: combination with anagrelide, seven-concentration matrices
# Protocol: as §4
# [7] = tested on: GIST882, GOT3 and SA4 cell lines; experiment: High throughput drug sensitivity and resistance test, average over cell lines (BAY2666605 combination); conditions: for synergy in high-throughput screening (in words): with anagrelide (GOT3, SA4) or BAY2666605 (GIST882, GOT3, SA4); for Average DSS (aDSS): BAY2666605 combination, average of GIST882, SA4 and GOT3, aDSS higher than 3.0 = synergy
# Protocol: as §1, §2, §3
# [8] = tested on: GIST882 cell line; experiment: High throughput drug sensitivity and resistance test (CellTiter-Glo, 72 hours); conditions: drug combined with BAY2666605 (40 nM) minus drug alone
# Protocol: High throughput drug sensitivity and resistance test. […] In addition, same compounds were investigated together with anagrelide hydrochloride (100 nM) treatment in the PDE3A low expressing cell lines SA4 and GOT3, and with BAY2666605 (40 nM) in all PDE3A-positive cell lines GIST882, SA4 and GOT3. […] A cell viability was measured after 72 hours using CellTiter-Glo Cell Viability assay (Promega Inc.) and PHERAstar FS plate reader (BMG Labtech). The data were normalized to negative (0.01% dimethyl sulfoxide only) and positive (100 μmol/L benzethonium chloride) controls.
# as §3
Structure (SMILES),Average DSS (aDSS) [1],GOT3 cell line: DSS(combo (anagrelide))-DSS(drug) [2],SA4 cell line: DSS(combo (anagrelide))-DSS(drug) [3],Average ZIP synergy score [4],Average ZIP synergy score [5],Average ZIP synergy score [6],synergy in high-throughput screening (in words) [7],GOT3 cell line: DSS(combo (BAY2666605))-DSS(drug) [2],SA4 cell line: DSS(combo (BAY2666605))-DSS(drug) [3],Average DSS (aDSS) [7],GIST882 cell line: DSS(combo (BAY2666605))-DSS(drug) [8]
CCN1C(=O)CNc2ncc(-c3ccc(-c4nc[nH]n4)nc3C)nc21 [CC-115],5.15,0.8,9.5,3.1,1.6,4.1,synergistic,–,–,–,–
Cc1ccc(NS(=O)(=O)c2cccc(C#N)c2)c2[nH]cc(C#N)c12 [E7820],12.85,7.5,18.2,3,1.6,14.8,synergistic,–,–,–,–
"CO[C@H]1C[C@@H]2CC[C@@H](C)[C@@](O)(O2)C(=O)C(=O)N2CCCC[C@H]2C(=O)O[C@H]([C@H](C)C[C@@H]2CC[C@@H](OCCO)[C@H](OC)C2)CC(=O)[C@H](C)/C=C(\C)[C@@H](O)[C@@H](OC)C(=O)[C@H](C)C[C@H](C)/C=C/C=C/C=C/1C [Everolimus, everolimus]",5.55,3,8.1,5,2.3,5.5,synergistic,4.1,12.4,6.5,3
Cc1nc(Nc2n[nH]c3c2CN(C(=O)N[C@H](CN(C)C)c2ccccc2)C3(C)C)c2sccc2n1 [PF-03758309],11.9,3.7,20.1,11.5,8.5,16.8,synergistic,−3.6,13.4,3.4,0.5
"CO[C@H]1C[C@@H]2CC[C@@H](C)[C@@](O)(O2)C(=O)C(=O)N2CCCC[C@H]2C(=O)O[C@H]([C@H](C)C[C@@H]2CC[C@@H](O)[C@H](OC)C2)CC(=O)[C@H](C)/C=C(\C)[C@@H](O)[C@@H](OC)C(=O)[C@H](C)C[C@H](C)/C=C/C=C/C=C/1C [Sirolimus, sirolimus]",6.45,3.4,9.5,–,–,–,–,2,7.9,4.4,3.4
"CC(C)C[C@@H](C(=O)N[C@H](C(=O)OC1CCCC1)c1ccccc1)[C@H](O)C(=O)NO [Tosedostat, tosedostat]",3.8,2.5,5.1,–,–,–,synergistic,6.7,14.6,14.1,21
"CC1(C)CCC(CN2CCN(c3ccc(C(=O)NS(=O)(=O)c4ccc(NCC5CCOCC5)c([N+](=O)[O-])c4)c(Oc4cnc5[nH]ccc5c4)c3)CC2)=C(c2ccc(Cl)cc2)C1 [Venetoclax, venetoclax]",3.1,0,6.2,–,–,–,–,0.2,29,13.8,12.2
"O=C(CCCCCCC(=O)Nc1ccccc1)NO [Vorinostat, vorinostat]",3.25,−0.7,7.2,–,–,–,synergistic,1.6,13.7,6.5,4.2
